Laboratory results: patent publication US9434711B2 (Janssen Pharmaceutica, NV, priority 2007, dated 2016)
Where two headings read alike, the source gives them in different places.

Experiments:
[1] = target: human TRPM8 (Homo sapiens (Human), UniProt Q7Z2W7); experiment: In Vitro Human TRPM8 Functional Assay (Ca2+ fluorescence, icilin EC80); type: cell-based; details: read-out: hTRPM8 IC50
Protocol: HEK293 cells are routinely grown as monolayer in Dulbecco's minimum essential medium supplemented with 10% FBS, 1 mM L-glutamine, 100 units/mL penicillin and 100 ug/mL streptomycin. Cells are maintained in 5% CO2 at 37° C.
For functional expression of TRPM8, the full-length cDNA encoding human and rat TRPM8 are subcloned into pCI-NEO mammalian expression vectors. The expression constructs are transiently transfected into HEK293 cells according to the FuGENE 6 Transfection Reagent® (ROCHE) instructions. Within twenty-four hours, transiently transfected cells are harvested and either seeded directly into assay plate or cryopreserved for future usage. […]
Maximal fluorescence intensity (FI) achieved upon addition of icilin is exported from the FDSS and further analyzed using GraphPad Prism 3.02 (Graph Pad Software Inc., CA, U.S.A.) where data is normalized to percent of maximal response. The dose response curves from the average of quadruplicate wells for each data point are analyzed by using nonlinear regression of either sigmoidal dose response or sigmoidal dose response (variable slope). Finally, the IC50 values are calculated with the best-fit dose curve determined by Prism.

[2] = system: Male Sprague Dawley rats; experiment: Inhibition of Icilin-Induced "Wet-Dog" Shakes in Rats; type: in vivo, rat; details: Rattus norvegicus, po, HPbCD, Na salt form
Protocol: Male Sprague Dawley rats (220-450 g, Charles River Labs, n=6-9/treatment) were used to evaluate the ability of selected compounds of the formula (I) to block icilin-induced “wet-dog” shakes (WDS). Compounds of the formula (I) were administered in an appropriate vehicle, such as hydroxypropyl-β-cyclodextrin (HPβCD), methocellulose, 10% Solutol, or H2O, or the like, by the appropriate route, i.p. or p.o., 30-120 minutes before icilin. Icilin was administered in PEG-400 or 10% solutol/H2O, at 1.0 or 3.0 mg/kg, i.p. and spontaneous “wet-dog” shakes were counted 10-20 minutes post-icilin. Results are presented as a percent inhibition of shakes, which was calculated as [1-(test compound WDS count/vehicle WDS count)]×100.

[3] = system: male Sprague-Dawley rats; experiment: Rat Carrageenan-Induced Radiant Heat Hypersensitivity; type: in vivo; details: dose 30 p.o., HPbCD, Na salt form
Protocol: Intraplantar injection of carrageenan into the hind paw of rats causes a robust acute inflammatory response characterized by reddening, swelling and hypersensitivity of the paw to thermal and mechanical stimuli typically peaking 3-6 hours following application and subsiding over the 12-24 hours.
To assess the effect of test compounds of the formula (I) on inflammatory hyperalgesia radiant heat response latencies were evaluated 3 hours following intraplantar carrageenan (Lambda, Type IV, 200 uL) injection into a single hind paw in male Sprague-Dawley rats. The test compound was administered either 2 hours prior to or 1 hour following carrageenan injection. The intent was to determine whether the compound would prevent or retard the hypersensitivity associated with this inflammogen. Baseline thermal response latencies were determined prior to any treatment and again 3 hours after carrageenan injection. Percent reversal of hyperalgesia relative to vehicle treatment (% R) was calculated for both compound treatment paradigms according to the following formula and is depicted in Table 8: % R=(Post compound latency−Post vehicle latency)/((Baseline latency−Post vehicle latency)×100%

[4] = system: Male Sprague Dawley rats; experiment: Chronic Constriction Injury (CCI)-Induced Model of Neuropathic Pain, Acetone-Induced Hypersensitivity; type: in vivo, rat; details: Rattus norvegicus, po, Na salt form; for inhibition in vivo at 3 mg/kg: 3 mg/kg p.o.; for inhibition in vivo at 10 mg/kg: 10 mg/kg p.o.; for inhibition in vivo at 17.8 mg/kg: 17.8 mg/kg p.o.; for inhibition in vivo at 30 mg/kg: 30 mg/kg p.o.; for inhibition in vivo at 56 mg/kg: 56 mg/kg p.o.
[5] = treatment 1 hour relative to Cg
[6] = treatment −2 hours relative to Cg
[7] = 4 h, vehicle HPbCD, Water, pretreatment 4 hr, read-out: Percent Inhibition
[8] = 4 h, HPbCD, pretreatment 4 hr, read-out: Percent Inhibition
[9] = 4 h, Water, pretreatment 4 hr, read-out: Percent Inhibition

Sequence of human TRPM8 (Q7Z2W7 whole entry): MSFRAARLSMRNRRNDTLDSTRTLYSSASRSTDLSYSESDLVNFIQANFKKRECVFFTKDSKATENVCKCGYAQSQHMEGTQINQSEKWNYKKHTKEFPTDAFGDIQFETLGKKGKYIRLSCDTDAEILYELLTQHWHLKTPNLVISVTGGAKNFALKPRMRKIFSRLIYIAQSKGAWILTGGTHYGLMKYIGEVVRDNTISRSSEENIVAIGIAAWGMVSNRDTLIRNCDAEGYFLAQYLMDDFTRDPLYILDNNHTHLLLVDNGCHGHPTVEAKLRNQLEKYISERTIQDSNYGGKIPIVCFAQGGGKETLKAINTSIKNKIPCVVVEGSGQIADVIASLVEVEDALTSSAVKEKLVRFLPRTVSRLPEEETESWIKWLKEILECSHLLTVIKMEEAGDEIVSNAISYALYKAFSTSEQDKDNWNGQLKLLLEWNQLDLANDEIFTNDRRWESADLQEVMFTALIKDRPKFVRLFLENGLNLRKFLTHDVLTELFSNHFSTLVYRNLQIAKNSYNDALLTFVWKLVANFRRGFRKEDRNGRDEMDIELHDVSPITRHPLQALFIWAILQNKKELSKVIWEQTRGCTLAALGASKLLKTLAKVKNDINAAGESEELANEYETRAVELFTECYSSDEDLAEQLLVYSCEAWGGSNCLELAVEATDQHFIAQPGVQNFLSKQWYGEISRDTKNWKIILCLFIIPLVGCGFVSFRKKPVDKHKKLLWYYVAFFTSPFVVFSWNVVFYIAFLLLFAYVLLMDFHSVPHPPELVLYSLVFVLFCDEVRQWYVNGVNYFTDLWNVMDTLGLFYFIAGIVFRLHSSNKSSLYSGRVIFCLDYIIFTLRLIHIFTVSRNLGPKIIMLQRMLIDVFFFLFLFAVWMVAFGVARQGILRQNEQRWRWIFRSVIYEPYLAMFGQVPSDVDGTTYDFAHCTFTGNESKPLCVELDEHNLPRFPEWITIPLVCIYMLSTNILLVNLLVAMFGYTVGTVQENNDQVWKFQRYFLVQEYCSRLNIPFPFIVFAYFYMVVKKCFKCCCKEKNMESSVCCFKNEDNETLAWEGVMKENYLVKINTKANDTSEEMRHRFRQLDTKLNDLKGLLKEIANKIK

Q: Which results are given for `Cc1c(N(Cc2ccc(F)c(C(F)(F)F)c2)S(=O)(=O)c2ccc(C(=O)O)cc2)sc2ccccc12` [Compound 306, N-(3-Methyl-benzo[b]thiophen-2-yl)-N-(4-fluoro-3-trifluoromethyl-benzyl)-4-carboxy-benzenesulfonamide]?
A: IC50 ([1]; Freshly transfected cells): 4 nM; ED50 ([2]; 1 h, 60 min pre-icilin): 2.5 mg/kg; Percent Reversal, relative to vehicle [3, 5]: 100%; Percent Reversal, relative to vehicle [3, 6]: 64%; inhibition in vivo at 3 mg/kg [4, 7]: 20%; inhibition in vivo at 10 mg/kg [4, 7]: 38%; inhibition in vivo at 17.8 mg/kg [4, 7]: 57%; inhibition in vivo at 30 mg/kg [4, 7]: 68%; inhibition in vivo at 56 mg/kg [4, 7]: 77%; inhibition in vivo at 100 mg/kg ([4]; 4 h, 100 mg/kg p.o., vehicle HPbCD, Water, pretreatment 4 hr, read-out: Percent Inhibition): 77%; inhibition in vivo at 30 mg/kg ([4]; 6 h, HPbCD, pretreatment 6 hr, read-out: Percent Inhibition): 69%; ED50 ([4]; vehicle HPbCD, Water, pretreatment 4 hr): 15 mg/kg

Q: Which IC50 ([1]; Cryopreserved cells) does the source give for `Cc1c(N(Cc2ccc(OC(F)(F)F)cc2)S(=O)(=O)c2ccc(C(=O)O)cc2)sc2ccccc12` [Compound 496, N-(3-Methyl-benzo[b]thiophen-2-yl)-N-(4-trifluoromethoxy-benzyl)-4-carboxy-benzenesulfonamide] here?
A: 1.4 nM

Q: And the ED50 ([2]; 2 h, 120 min pre-icilin)?
A: 2.5 mg/kg

Q: And the “Percent Reversal, relative to vehicle” value [3, 5]?
A: 106%

Q: What about the “Percent Reversal, relative to vehicle” value [3, 6] of the same compound?
A: 74%

Q: And the inhibition in vivo at 30 mg/kg ([4]; 2 h, Water, pretreatment 2 hr, read-out: Percent Inhibition)?
A: 74%

Q: What about the inhibition in vivo at 0.3 mg/kg ([4]; 4 h, 0.3 mg/kg p.o., HPbCD, pretreatment 4 hr, read-out: Percent Inhibition) of the same compound?
A: 28%

Q: What about the inhibition in vivo at 1 mg/kg ([4]; 4 h, 1 mg/kg p.o., HPbCD, pretreatment 4 hr, read-out: Percent Inhibition) of the same compound?
A: 32%

Q: What about the inhibition in vivo at 3 mg/kg [4, 8] of the same compound?
A: 23%

Q: And the inhibition in vivo at 5.6 mg/kg ([4]; 4 h, 5.6 mg/kg p.o., HPbCD, pretreatment 4 hr, read-out: Percent Inhibition)?
A: 72%

Q: And the inhibition in vivo at 10 mg/kg [4, 8]?
A: 71%

Q: What about the inhibition in vivo at 10 mg/kg [4, 9] of the same compound?
A: 76%

Q: And the inhibition in vivo at 17.8 mg/kg [4, 9]?
A: 64%

Q: What about the inhibition in vivo at 30 mg/kg [4, 9] of the same compound?
A: 72%

Q: What about the inhibition in vivo at 56 mg/kg [4, 9] of the same compound?
A: 68%

Q: And the ED50 ([4]; HPbCD, pretreatment 4 hr)?
A: 3.5 mg/kg
